In ChEMBL document CHEMBL1155634, “New butenolides from two marine streptomycetes” (J Nat Prod, 2000) one finds Activity data, which are given here for 4 molecules.

Active and inactive are the calls of the source. No cut-off for these calls is given here.

Holding throughout (type): functional, organism-based
In assay [1] the test system is Streptomyces viridochromogenes. As to the kind of experiment: Antibacterial activity against Streptomyces viridochromogenes Tu57 assessed as inhibition of spore formation.
The subject of another assay is Staphylococcus aureus. As to the kind of experiment: Antibacterial activity against Staphylococcus aureus.
The test system of assay [2] is Streptomyces viridochromogenes. As to the kind of experiment: Antibacterial activity against Streptomyces viridochromogenes Tu57.
The next assay deals with Escherichia coli. As to the kind of experiment: Antibacterial activity against Escherichia coli.
A further assay concerns Candida albicans. As to the kind of experiment: Antifungal activity against Candida albicans.
A further assay has as its system Rhizomucor miehei. As to the kind of experiment: Antifungal activity against Mucor miehei Tu284.

In the case of `CCC(C)(O)CCCCC[C@H]1C=CC(=O)O1` (some centres undefined), the outcome in assay [1] was inactive.

In the case of `CC(O)C(C)CCCCC[C@H]1C=CC(=O)O1` (stereo in doubt; 3), in assay [1], the result was inactive.

With `CC(O)C(C)CCCCC[C@H]1C=CC(=O)O1` (stereo in doubt; 2), in assay [1], the outcome was inactive.

As for `CC(=O)C(C)CCCCC[C@H]1C=CC(=O)O1` (some centres undefined), the outcome (in assay [1]; with Staphylococcus aureus; in assay [2]; in the assay with Escherichia coli; in the assay on Candida albicans; with Rhizomucor miehei) was inactive.
